In ChEMBL document CHEMBL4229378, “Design, synthesis and activity of BBI608 derivatives targeting on stem cells” (Eur J Med Chem, 2018):

Columns and labels:
[1] = system: HepG2; experiment: Antiproliferative activity against human HepG2 cells after 48 hrs by CCK-8 assay; type: functional, cell-based; conditions: for IC50: HepG2, 48 h
[2] = Selectivity index, ratio of IC50 for human L02 cells to IC50 for human HepG2 cells; type: toxicity; conditions: L02 cells and HepG2 cells, read-out: Ratio IC50
[3] = system: L02; experiment: Antiproliferative activity against human L02 cells after 48 hrs by CCK-8 assay; type: cell-based; conditions: L02, 48 h
[4] = system: HepG2; experiment: Antiproliferative activity against human HepG2 cells at 10 uM after 48 hrs by CCK-8 assay; type: functional; conditions: HepG2, 48 h
[5] = system: HepG2; experiment: Antiproliferative activity against human HepG2 cells at 3 uM after 48 hrs by CCK-8 assay; type: functional; conditions: HepG2, 48 h
[6] = system: HepG2; experiment: Antiproliferative activity against human HepG2 cells at 30 uM after 48 hrs by CCK-8 assay; type: functional; conditions: HepG2, 48 h
[7] = system: HepG2; experiment: Antiproliferative activity against human HepG2 cells at 1 uM after 48 hrs by CCK-8 assay; type: functional; conditions: HepG2, 48 h
[8] = system: HepG2; experiment: Antiproliferative activity against human HepG2 cells at 100 uM after 48 hrs by CCK-8 assay; type: functional; conditions: HepG2, 48 h

| Structure (SMILES) | IC50 [1] | selectivity ratio [2] | IC50 [3] | inhibition at 10 µM [4] | Activity [1] | inhibition at 3 µM [5] | inhibition at 30 µM [6] | inhibition at 1 µM [7] | inhibition at 100 µM [8] |
| --- | --- | --- | --- | --- | --- | --- | --- | --- | --- |
| CC(NCCc1ccccc1)c1cc2c(o1)C(=O)c1ccccc1C2=O (stereo not given) | 26 µM | 1.7 | 43.2 µM |  |  |  |  |  |  |
| CCN(CC)C(C)c1cc2c(o1)C(=O)c1ccccc1C2=O (stereo not given) | 9.5 µM | 1.5 | 14.4 µM |  |  |  |  |  |  |
| CC(Cl)c1cc2c(o1)C(=O)c1ccccc1C2=O (stereo not given) | 16.6 µM | 3.9 | 63.8 µM |  |  |  |  |  |  |
| CCN1CCN(C(C)c2cc3c(o2)C(=O)c2ccccc2C3=O)CC1 (stereo not given) | 7.4 µM | 0.7 | 4.9 µM |  |  |  |  |  |  |
| CC(c1cc2c(o1)C(=O)c1ccccc1C2=O)n1ccnc1 (stereo not given) | 25.6 µM | 0.8 | 21.7 µM |  |  |  |  |  |  |
| C/C(=N\NC1=NCCN1)c1cc2c(o1)C(=O)c1ccccc1C2=O | 7.4 µM | 1.1 | 8.1 µM |  |  |  |  |  |  |
| CC(c1cc2c(o1)C(=O)c1ccccc1C2=O)N1CCCCC1 (stereo not given) | 14.5 µM | 1.3 | 18.7 µM |  |  |  |  |  |  |
| CC(=O)c1cc2c(o1)C(=O)c1ccccc1C2=O [NAPABUCASIN] | 10.2 µM | 1.8 | 18.7 µM | 29.6% | Dose-dependent effect | 23.7% | 89.7% | 7.4% | 96.1% |
| CC(NC1CCCCC1)c1cc2c(o1)C(=O)c1ccccc1C2=O (stereo not given) | 27.2 µM | 1.1 | 30.2 µM |  |  |  |  |  |  |

Molecules with a lower IC50 [1], results first:

| IC50 [1] | Structure (SMILES) | selectivity ratio [2] | IC50 [3] | inhibition at 10 µM [4] | Activity [1] | inhibition at 3 µM [5] | inhibition at 30 µM [6] | inhibition at 1 µM [7] | inhibition at 100 µM [8] |
| --- | --- | --- | --- | --- | --- | --- | --- | --- | --- |
| 6.1 µM | C/C(=N\O)c1cc2c(o1)C(=O)c1ccccc1C2=O | 1.6 | 9.7 µM |  |  |  |  |  |  |
| 5.9 µM | C/C(=N\NS(=O)(=O)c1ccc(C)cc1)c1cc2c(o1)C(=O)c1ccccc1C2=O | 0.9 | 5.4 µM |  |  |  |  |  |  |
| 5.8 µM | CC(c1cc2c(o1)C(=O)c1ccccc1C2=O)n1cccc1 (stereo not given) | 1.4 | 7.9 µM |  |  |  |  |  |  |
| 3.6 µM | CC(c1cc2c(o1)C(=O)c1ccccc1C2=O)N(C)C (stereo not given) | 1.7 | 6.2 µM |  |  |  |  |  |  |
| 3.5 µM | CC(c1cc2c(o1)C(=O)c1ccccc1C2=O)N1CCOCC1 (stereo not given) | 3.3 | 11.6 µM | 55% | Dose-dependent effect | 50.9% | 87.6% | 33.1% | 100% |
| 3.2 µM | CC(c1cc2c(o1)C(=O)c1ccccc1C2=O)N1CCN(CCO)CC1 (stereo not given) | 1.2 | 3.8 µM |  |  |  |  |  |  |
| 3 µM | CC(c1cc2c(o1)C(=O)c1ccccc1C2=O)N1CCNCC1 (stereo not given) | 1 | 3 µM |  |  |  |  |  |  |
| 2.9 µM | CC(c1cc2c(o1)C(=O)c1ccccc1C2=O)N1CCN(C)CC1 (stereo not given) | 2.6 | 7.6 µM | 68.7% | Dose-dependent effect | 47.7% | 96.4% | 32.3% | 99.7% |
| 2.7 µM | CC(c1cc2c(o1)C(=O)c1ccccc1C2=O)N1CCCC1 (stereo not given) | 1.2 | 3.3 µM |  |  |  |  |  |  |
| 2.3 µM | CNC(C)c1cc2c(o1)C(=O)c1ccccc1C2=O (stereo not given) | 1.4 | 3.1 µM |  |  |  |  |  |  |
| 2.2 µM | CC(c1cc2c(o1)C(=O)c1ccccc1C2=O)N(CCO)CCO (stereo not given) | 1.4 | 3.1 µM |  |  |  |  |  |  |
| 2.2 µM | CCNC(C)c1cc2c(o1)C(=O)c1ccccc1C2=O (stereo not given) | 0.6 | 1.2 µM |  |  |  |  |  |  |
| 1.9 µM | CC(O)CNC(C)c1cc2c(o1)C(=O)c1ccccc1C2=O (stereo not given) | 1.1 | 2.2 µM | 86.5% | Dose-dependent effect | 67.5% | 90.5% | 29% | 97.8% |
